According to patent publication US20060069132A1, “Azolecarboxamide herbicides” (priority 2004, published 2006):

Tests used:
[1] = system: ducksalad; test: Test C flooded paddy test; type: in vivo, Heteranthera limosa
[2] = system: morningglory; test: Test C pre-/postemergence herbicide test; type: in vivo, Ipomoea coccinea; set-up: key to Plant response rating, Morningglory: 0 = no effect, 100 = complete control
Method in brief: (§1)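 Preemergence: seeds planted and treated with compound in non-phytotoxic solvent with surfactant; postemergence: plants at 2 to 18 cm (1- to 4-leaf stage) sprayed likewise. Kept in greenhouse 12 to 14 days, then visually rated against controls, 0 (no effect) to 100 (complete control).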

[3] = system: common ragweed; test: Test C pre-/postemergence herbicide test; type: in vivo, Ambrosia elatior; set-up: key to Plant response rating, Ragweed: 0 = no effect, 100 = complete control
Method in brief: as §1

[4] = system: rice; test: Test C flooded paddy test; type: in vivo, Oryza sativa
Method in brief: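 Injury scored visually against controls on a 0 (no effect) to 100 (complete control) scale, 12 to 14 days after treatment in greenhouse. Flooded paddy plants treated at 2-leaf stage; postemergence plants at 1- to 4-leaf stage, 2 to 18 cm tall.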

[5] = system: giant foxtail; test: Test C pre-/postemergence herbicide test; type: in vivo, Setaria faberi
Method in brief: as §1

[6] = system: smallflower umbrella sedge; test: Test C flooded paddy test; type: in vivo, Cyperus difformis
[7] = system: common (oilseed) sunflower; test: Test C pre-/postemergence herbicide test; type: in vivo, Helianthus annuus
Method in brief: as §1

[8] = system: large crabgrass; test: Test C pre-/postemergence herbicide test; type: in vivo, Digitaria sanguinalis
Method in brief: as §1

[9] = system: corn; test: Test C pre-/postemergence herbicide test; type: in vivo, Zea mays
Method in brief: as §1

[10] = system: bermudagrass; test: Test C pre-/postemergence herbicide test; type: in vivo, Cynodon dactylon
Method in brief: as §1

[11] = system: kochia; test: Test C pre-/postemergence herbicide test; type: in vivo, Kochia scoparia
Method in brief: as §1

[12] = 125 g ai/ha, scale 0 to 100 (0 no effect, 100 complete control)
[13] = 250 g ai/ha, scale of 0 to 100, 0 is no effect, 100 is complete control
[14] = 500 g ai/ha, visual rating after 12 to 14 days, scale 0 to 100 (0 no effect, 100 complete control)
[15] = 62 g ai/ha, preemergence, scale 0 to 100
[16] = 250 g ai/ha, scale 0-100, preemergence
[17] = 500 g ai/ha, scale 0 to 100 (0 no effect, 100 complete control), visual, 12 to 14 days, preemergence

CCNC(=O)c1ccc(F)c(NC(=O)C2CN(C(C)(C)C)N=C2CC)c1 (centres unmarked) [Compound 336, 1-(1,1-dimethylethyl)-3-ethyl-N-[5-[(ethylamino)carbonyl]-2-fluorophenyl]-4,5-dihydro-1H-pyrazole-4-carboxamide]
pest or weed control at 62 g/ha ([1]; Heteranthera limosa, 62 g ai/ha, scale 0 to 100, read-out: Ducksalad plant response rating): 45% | pest or weed control at 125 g/ha ([1]; Heteranthera limosa, 125 g ai/ha, scale 0 to 100 (0 no effect, 100 complete control), read-out: Ducksalad plant response rating): 55% | pest or weed control at 250 g/ha ([1]; Heteranthera limosa, 250 g ai/ha, scale of 0 to 100, 0 is no effect, 100 is complete control, read-out: Ducksalad plant response rating): 75% | pest or weed control at 500 g/ha ([1]; Heteranthera limosa, 500 g ai/ha, visual rating after 12 to 14 days, scale 0 to 100 (0 no effect, 100 complete control), read-out: Plant response rating, Ducksalad): 90% | pest or weed control at 62 g/ha ([2]; Ipomoea, pre-emergence, 62 g ai/ha, preemergence, scale 0 to 100, read-out: Plant response rating, Morningglory): 5% | pest or weed control at 125 g/ha ([2]; Ipomoea, pre-emergence, 125 g ai/ha, scale 0 (no effect) to 100 (complete control), visual, 12 to 14 days, read-out: Plant response rating, Morningglory): 70% | pest or weed control at 250 g/ha ([2]; Ipomoea, pre-emergence, 250 g ai/ha, scale 0-100, read-out: Plant response rating, Morningglory): 100% | pest or weed control at 500 g/ha ([2]; Ipomoea, pre-emergence, 500 g ai/ha, scale 0 to 100 (0 no effect, 100 complete control), visual, 12 to 14 days, read-out: Plant response rating, Morningglory): 100% | pest or weed control at 62 g/ha ([3]; Ambrosia artemisiifolia, pre-emergence, 62 g ai/ha, preemergence, scale 0 to 100, read-out: Plant response rating, Ragweed): 30% | pest or weed control at 250 g/ha ([3]; Ambrosia artemisiifolia, pre-emergence, 250 g ai/ha, scale 0-100, read-out: Plant response rating, Ragweed): 80% | pest or weed control at 500 g/ha ([3]; Ambrosia artemisiifolia, pre-emergence, 500 g ai/ha, scale 0 to 100 (0 no effect, 100 complete control), visual, 12 to 14 days, read-out: Plant response rating, Ragweed): 100% | plant injury at 62 g/ha ([4]; Oryza sativa, 62 g ai/ha, scale 0 to 100, read-out: Rice plant response rating): 10% | plant injury at 125 g/ha ([4]; Oryza sativa, 125 g ai/ha, scale 0 to 100 (0 no effect, 100 complete control), read-out: Rice plant response rating): 45% | plant injury at 250 g/ha ([4]; Oryza sativa, 250 g ai/ha, scale of 0 to 100, 0 is no effect, 100 is complete control, read-out: Rice plant response rating): 75% | plant injury at 500 g/ha ([4]; Oryza sativa, 500 g ai/ha, visual rating after 12 to 14 days, scale 0 to 100 (0 no effect, 100 complete control), read-out: Plant response rating, Rice): 75% | pest or weed control at 62 g/ha ([5]; Setaria faberi, pre-emergence, 312 h, 62 g ai/ha, preemergence, scale 0 to 100, read-out: Plant response rating, Foxtail, Giant): 0% | pest or weed control at 125 g/ha ([5]; Setaria faberi, pre-emergence, 312 h, 125 g ai/ha, scale 0 (no effect) to 100 (complete control), visual, 12 to 14 days, read-out: Plant response rating, Foxtail, Giant): 5% | pest or weed control at 250 g/ha ([5]; Setaria faberi, pre-emergence, 312 h, 250 g ai/ha, scale 0-100, read-out: Plant response rating, Foxtail, Giant): 90% | pest or weed control at 500 g/ha ([5]; Setaria faberi, pre-emergence, 312 h, 500 g ai/ha, scale 0 to 100 (0 no effect, 100 complete control), visual, 12 to 14 days, read-out: Plant response rating, Foxtail, Giant): 90% | pest or weed control at 62 g/ha ([6]; Cyperus difformis, 62 g ai/ha, scale 0 to 100, read-out: Sedge, Umbrella plant response rating): 25% | pest or weed control at 125 g/ha ([6]; Cyperus difformis, 125 g ai/ha, scale 0 to 100 (0 no effect, 100 complete control), read-out: Sedge, Umbrella plant response rating): 80% | pest or weed control at 250 g/ha ([6]; Cyperus difformis, 250 g ai/ha, scale of 0 to 100, 0 is no effect, 100 is complete control, read-out: Sedge, Umbrella plant response rating): 85% | pest or weed control at 500 g/ha ([6]; Cyperus difformis, 500 g ai/ha, visual rating after 12 to 14 days, scale 0 to 100 (0 no effect, 100 complete control), read-out: Plant response rating, Sedge, Umbrella): 90% | pest or weed control at 62 g/ha ([7]; Helianthus annuus, pre-emergence, 62 g ai/ha, preemergence, scale 0 to 100, read-out: Plant response rating, Sunflower): 0% | pest or weed control at 250 g/ha ([7]; Helianthus annuus, pre-emergence, 250 g ai/ha, scale 0-100, read-out: Plant response rating, Sunflower): 30% | pest or weed control at 500 g/ha ([7]; Helianthus annuus, pre-emergence, 500 g ai/ha, scale 0 to 100 (0 no effect, 100 complete control), visual, 12 to 14 days, read-out: Plant response rating, Sunflower): 45% | pest or weed control at 62 g/ha ([8]; Digitaria sanguinalis, pre-emergence, 312 h, 62 g ai/ha, preemergence, scale 0 to 100, read-out: Plant response rating, Crabgrass, Large): 100% | pest or weed control at 125 g/ha ([8]; Digitaria sanguinalis, pre-emergence, 312 h, 125 g ai/ha, scale 0 (no effect) to 100 (complete control), visual, 12 to 14 days, read-out: Plant response rating, Crabgrass, Large): 100% | pest or weed control at 250 g/ha ([8]; Digitaria sanguinalis, pre-emergence, 312 h, 250 g ai/ha, scale 0-100, read-out: Plant response rating, Crabgrass, Large): 100% | pest or weed control at 500 g/ha ([8]; Digitaria sanguinalis, pre-emergence, 312 h, 500 g ai/ha, scale 0 to 100 (0 no effect, 100 complete control), visual, 12 to 14 days, read-out: Plant response rating, Crabgrass, Large): 100% | Corn plant response rating (crop injury, 0 = no effect, 100 = complete kill) at 62 g/ha ([9]; Zea mays, pre-emergence, 312 h, 62 g ai/ha, preemergence, scale 0 to 100): 10% | Corn plant response rating (crop injury, 0 = no effect, 100 = complete kill) at 125 g/ha ([9]; Zea mays, pre-emergence, 312 h, 125 g ai/ha, scale 0 (no effect) to 100 (complete control), visual, 12 to 14 days): 35% | Corn plant response rating (crop injury, 0 = no effect, 100 = complete kill) at 250 g/ha ([9]; Zea mays, pre-emergence, 312 h, 250 g ai/ha, scale 0-100): 85% | Corn plant response rating (crop injury, 0 = no effect, 100 = complete kill) at 500 g/ha ([9]; Zea mays, pre-emergence, 312 h, 500 g ai/ha, scale 0 to 100 (0 no effect, 100 complete control), visual, 12 to 14 days): 85% | pest or weed control at 62 g/ha ([10]; Cynodon dactylon, pre-emergence, 312 h, 62 g ai/ha, preemergence, scale 0 to 100, 0 no effect, 100 complete control, read-out: Plant response rating, Bermudagrass): 95% | pest or weed control at 125 g/ha ([10]; Cynodon dactylon, pre-emergence, 312 h, 125 g ai/ha, scale 0 (no effect) to 100 (complete control), visual, 12 to 14 days, read-out: Plant response rating, Bermudagrass): 100% | pest or weed control at 250 g/ha ([10]; Cynodon dactylon, pre-emergence, 312 h, 250 g ai/ha, scale 0-100, read-out: Plant response rating, Bermudagrass): 100% | pest or weed control at 500 g/ha ([10]; Cynodon dactylon, pre-emergence, 312 h, 500 g ai/ha, scale 0 to 100 (0 no effect, 100 complete control), visual, 12 to 14 days, read-out: Plant response rating, Bermudagrass): 100% | pest or weed control at 62 g/ha ([11]; Bassia scoparia, pre-emergence, 62 g ai/ha, preemergence, scale 0 to 100, read-out: Plant response rating, Kochia): 5% | pest or weed control at 125 g/ha ([11]; Bassia scoparia, pre-emergence, 125 g ai/ha, scale 0 (no effect) to 100 (complete control), visual, 12 to 14 days, read-out: Plant response rating, Kochia): 70% | pest or weed control at 250 g/ha ([11]; Bassia scoparia, pre-emergence, 250 g ai/ha, scale 0-100, read-out: Plant response rating, Kochia): 100% | pest or weed control at 500 g/ha ([11]; Bassia scoparia, pre-emergence, 500 g ai/ha, scale 0 to 100 (0 no effect, 100 complete control), visual, 12 to 14 days, read-out: Plant response rating, Kochia): 100%

CCC1=NN(C(C)(C)C)CC1C(=O)Nc1cc(C(=O)N2CCCC2)ccc1F (racemic) [Compound 341]
Ducksalad plant response rating ([1]; 62 g ai/ha, scale 0 to 100): 20 | Ducksalad plant response rating [1, 12]: 50 | Ducksalad plant response rating [1, 13]: 60 | Plant response rating, Ducksalad [1, 14]: 60 | Plant response rating, Morningglory [2, 15]: 0 | Plant response rating (0 = no effect, 100 = complete control), Morningglory ([2]; 125 g ai/ha, preemergence): 5 | Plant response rating, Morningglory [2, 16]: 5 | Plant response rating, Morningglory [2, 17]: 50 | Plant response rating, Ragweed [3, 15]: 50 | Plant response rating (0 = no effect, 100 = complete control), Ragweed ([3]; 125 g ai/ha, preemergence): 100 | Plant response rating, Ragweed [3, 16]: 100 | Plant response rating, Ragweed [3, 17]: 100 | Rice plant response rating ([4]; 62 g ai/ha, scale 0 to 100): 20 | Rice plant response rating [4, 12]: 50 | Rice plant response rating [4, 13]: 60 | Plant response rating, Rice [4, 14]: 70 | Plant response rating, Foxtail, Giant [5, 15]: 0 | Plant response rating (0 = no effect, 100 = complete control), Foxtail, Giant ([5]; 125 g ai/ha, preemergence): 50 | Plant response rating, Foxtail, Giant [5, 16]: 55 | Plant response rating, Foxtail, Giant [5, 17]: 80 | Sedge, Umbrella plant response rating ([6]; 62 g ai/ha, scale 0 to 100): 20 | Sedge, Umbrella plant response rating [6, 12]: 50 | Sedge, Umbrella plant response rating [6, 13]: 60 | Plant response rating, Sedge, Umbrella [6, 14]: 60 | Plant response rating, Sunflower [7, 15]: 0 | Plant response rating (0 = no effect, 100 = complete control), Sunflower ([7]; 125 g ai/ha, preemergence): 0 | Plant response rating, Sunflower [7, 16]: 50 | Plant response rating, Sunflower [7, 17]: 100 | Plant response rating, Crabgrass, Large [8, 15]: 50 | Plant response rating (0 = no effect, 100 = complete control), Crabgrass, Large ([8]; 125 g ai/ha, preemergence): 80 | Plant response rating, Crabgrass, Large [8, 16]: 90 | Plant response rating, Crabgrass, Large [8, 17]: 100 | Plant response rating, Corn [9, 15]: 10 | Plant response rating (0 = no effect, 100 = complete control), Corn ([9]; 125 g ai/ha, preemergence): 60 | Plant response rating, Corn [9, 16]: 85 | Plant response rating, Corn [9, 17]: 90 | Plant response rating, Bermudagrass ([10]; 62 g ai/ha, preemergence, scale 0 to 100, 0 no effect, 100 complete control): 80 | Plant response rating (0 = no effect, 100 = complete control), Bermudagrass ([10]; 125 g ai/ha, preemergence): 80 | Plant response rating, Bermudagrass [10, 16]: 100 | Plant response rating, Bermudagrass [10, 17]: 100 | Plant response rating, Kochia [11, 15]: 80 | Plant response rating (0 = no effect, 100 = complete control), Kochia ([11]; 125 g ai/ha, preemergence): 100 | Plant response rating, Kochia [11, 16]: 100 | Plant response rating, Kochia [11, 17]: 100
